Test results taken from US20090220604A1, “AMINO ACIDS IN MICELLE PREPARATION” (ANGIOTECH INTERNATIONAL AG, priority 2002, published 2009).

Assay: Recovery of paclitaxel added to mixtures after heating to 55° C. for 1 hour (reverse phase HPLC with UV detection)
Format: physicochemical
Experimental: The desirability of removing unreacted starting materials and/or acidic reaction by-products can be seen by reference to the data in Table 1. […] According to the data, when paclitaxel is combined with a diblock copolymer having up to 2% residual monomer and up to 0.2 μmol/mg acid content (expressed as the number of protons titrated in a solution prepared by dissolving 1 mg of diblock copolymer in water), after heating, only 95% of the paclitaxel initially added to the mixture could be recovered, as quantified using a reverse phase HPLC assay with UV detection and a taxane optimized C18 column.

SMILES: CC(=O)O[C@H]1C(=O)[C@@]2(C)[C@H]([C@H](OC(=O)c3ccccc3)[C@]3(O)C[C@H](OC(=O)[C@H](O)[C@@H](NC(=O)c4ccccc4)c4ccccc4)C(C)=C1C3(C)C)[C@]1(OC(C)=O)CO[C@@H]1C[C@@H]2O [paclitaxel]
- Paclitaxel recovered after heating (combined with diblock copolymer having up to 2% residual monomer and up to 0.2 μmol/mg acid content): 95%
- Paclitaxel recovered after heating (combined with methoxypolyethylene glycol, no measured acidic components and no DL-lactide monomer): 99%
- Paclitaxel recovered after heating (diblock copolymer with greatly reduced quantities of residual monomer and acidic components): 98%
